Assays:
[1] = target: T1, Protein arginine N-methyltransferase 7 (Homo sapiens) (UniProt Q9NVM4); settings: at 10 µM
T1 sequence (whole entry): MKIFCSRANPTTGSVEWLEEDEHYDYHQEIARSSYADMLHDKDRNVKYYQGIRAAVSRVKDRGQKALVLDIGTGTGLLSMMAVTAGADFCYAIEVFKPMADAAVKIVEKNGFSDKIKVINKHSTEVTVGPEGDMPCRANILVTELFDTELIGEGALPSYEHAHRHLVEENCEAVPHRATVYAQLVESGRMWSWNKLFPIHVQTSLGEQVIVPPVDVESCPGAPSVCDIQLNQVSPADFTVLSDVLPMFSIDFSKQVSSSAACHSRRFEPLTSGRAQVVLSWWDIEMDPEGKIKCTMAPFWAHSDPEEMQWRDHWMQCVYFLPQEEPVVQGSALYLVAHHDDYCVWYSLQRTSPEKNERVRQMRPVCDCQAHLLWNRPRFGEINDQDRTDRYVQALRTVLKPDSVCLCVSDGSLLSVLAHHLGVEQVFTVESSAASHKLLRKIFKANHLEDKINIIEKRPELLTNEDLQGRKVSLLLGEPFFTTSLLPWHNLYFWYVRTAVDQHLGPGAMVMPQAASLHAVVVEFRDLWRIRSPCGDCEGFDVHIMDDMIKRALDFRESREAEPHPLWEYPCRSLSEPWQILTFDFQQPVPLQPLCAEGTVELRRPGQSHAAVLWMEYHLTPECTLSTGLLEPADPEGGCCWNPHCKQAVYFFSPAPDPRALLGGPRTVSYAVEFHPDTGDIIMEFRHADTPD

[2] = target: Mitogen-activated protein kinase 1 (Homo sapiens, UniProt P28482); assay: Selectivity interaction (Kinase panel (DSF assay)) EUB0001559a MAPK1
[3] = target: T2, Scaffold protein ILK (Homo sapiens) (UniProt Q13418); assay: Selectivity interaction (ActivX KiNativ screen (kinase selectivity in THP-1 cell lysates)) EUB0000639a ILK; format: subcellular; settings: lysate, at 0.2 µM
T2 sequence (whole entry): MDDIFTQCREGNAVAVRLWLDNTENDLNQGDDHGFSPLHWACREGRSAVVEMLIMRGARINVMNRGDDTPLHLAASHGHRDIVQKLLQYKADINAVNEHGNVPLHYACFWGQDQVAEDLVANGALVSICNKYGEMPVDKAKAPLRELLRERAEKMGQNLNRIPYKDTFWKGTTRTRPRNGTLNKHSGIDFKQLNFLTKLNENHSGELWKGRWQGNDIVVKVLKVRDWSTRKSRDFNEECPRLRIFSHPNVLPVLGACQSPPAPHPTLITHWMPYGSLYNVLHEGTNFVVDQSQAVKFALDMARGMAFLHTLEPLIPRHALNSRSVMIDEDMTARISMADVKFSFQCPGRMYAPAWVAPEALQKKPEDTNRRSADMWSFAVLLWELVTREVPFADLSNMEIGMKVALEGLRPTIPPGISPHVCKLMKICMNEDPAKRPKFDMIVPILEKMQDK

[4] = target: Mitogen-activated protein kinase 8 (Homo sapiens, UniProt P45983); assay: Selectivity interaction (KinomeScan (DiscoverX)) EUB0000595a MAPK8; settings: at 10 µM
[5] = target: Cyclin-dependent kinase-like 3 (Homo sapiens) (UniProt Q8IVW4); assay: Selectivity interaction (KinomeScan (DiscoverX)) EUB0000092b CDKL3; settings: at 10 µM
[6] = target: Receptor tyrosine-protein kinase erbB-3 (Homo sapiens) (UniProt P21860); assay: Selectivity interaction (KinomeScan (DiscoverX)) EUB0000618a ERBB3; settings: at 10 µM
[7] = target: T3, SNF-related serine/threonine-protein kinase (Homo sapiens) (UniProt Q9NRH2); assay: Selectivity interaction (KinomeScan (DiscoverX)) EUB0000618a SNRK; settings: at 10 µM
T3 sequence (whole entry): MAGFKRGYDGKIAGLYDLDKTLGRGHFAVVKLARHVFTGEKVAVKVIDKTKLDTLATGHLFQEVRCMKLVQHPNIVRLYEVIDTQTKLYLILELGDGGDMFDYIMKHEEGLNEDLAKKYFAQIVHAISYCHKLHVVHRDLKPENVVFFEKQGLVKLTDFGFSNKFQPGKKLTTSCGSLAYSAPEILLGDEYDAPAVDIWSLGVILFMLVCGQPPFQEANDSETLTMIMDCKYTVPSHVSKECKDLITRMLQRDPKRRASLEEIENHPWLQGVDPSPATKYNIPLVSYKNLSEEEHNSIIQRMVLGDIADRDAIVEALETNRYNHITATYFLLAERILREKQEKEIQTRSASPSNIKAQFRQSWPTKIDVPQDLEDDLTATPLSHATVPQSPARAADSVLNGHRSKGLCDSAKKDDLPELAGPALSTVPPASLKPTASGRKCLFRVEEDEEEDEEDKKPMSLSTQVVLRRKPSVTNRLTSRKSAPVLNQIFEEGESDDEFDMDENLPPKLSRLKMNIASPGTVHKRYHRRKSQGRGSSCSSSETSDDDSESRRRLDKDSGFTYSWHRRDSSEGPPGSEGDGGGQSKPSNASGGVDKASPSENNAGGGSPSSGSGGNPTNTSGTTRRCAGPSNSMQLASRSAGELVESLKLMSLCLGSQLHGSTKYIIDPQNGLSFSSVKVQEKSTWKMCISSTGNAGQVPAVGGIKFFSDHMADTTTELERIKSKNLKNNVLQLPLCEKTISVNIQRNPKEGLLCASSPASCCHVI

[8] = target: T4, Mitogen-activated protein kinase kinase kinase 7 (Homo sapiens) (UniProt O43318); assay: Selectivity interaction (ActivX KiNativ screen (ex vivo kinase selectivity in human PBMCs)) EUB0001619a MAP3K7; format: cell-based; settings: PBMC, at 1 µM
T4 sequence (whole entry): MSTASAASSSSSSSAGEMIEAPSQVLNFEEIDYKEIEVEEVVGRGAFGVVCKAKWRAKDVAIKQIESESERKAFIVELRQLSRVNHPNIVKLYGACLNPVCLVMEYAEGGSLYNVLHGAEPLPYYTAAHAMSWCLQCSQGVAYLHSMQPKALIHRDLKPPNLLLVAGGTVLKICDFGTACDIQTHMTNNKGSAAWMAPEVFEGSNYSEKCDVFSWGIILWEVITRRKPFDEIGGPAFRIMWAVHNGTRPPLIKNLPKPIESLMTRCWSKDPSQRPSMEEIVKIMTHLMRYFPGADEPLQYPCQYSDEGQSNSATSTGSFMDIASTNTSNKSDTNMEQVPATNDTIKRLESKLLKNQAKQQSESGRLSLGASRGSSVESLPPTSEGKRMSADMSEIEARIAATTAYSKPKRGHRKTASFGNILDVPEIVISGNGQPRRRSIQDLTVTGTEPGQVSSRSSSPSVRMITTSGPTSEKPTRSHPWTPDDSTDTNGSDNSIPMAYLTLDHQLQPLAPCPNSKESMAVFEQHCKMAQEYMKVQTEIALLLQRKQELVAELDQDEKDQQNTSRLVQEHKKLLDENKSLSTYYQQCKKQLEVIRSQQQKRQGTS

[9] = target: Serine/threonine-protein kinase 38-like (Homo sapiens) (UniProt Q9Y2H1); assay: Selectivity interaction (KinomeScan (DiscoverX)) EUB0001619a STK38L; settings: at 1 µM
Serine/threonine-protein kinase 38-like (Homo sapiens), sequence (Q9Y2H1 2-464 limits assumed): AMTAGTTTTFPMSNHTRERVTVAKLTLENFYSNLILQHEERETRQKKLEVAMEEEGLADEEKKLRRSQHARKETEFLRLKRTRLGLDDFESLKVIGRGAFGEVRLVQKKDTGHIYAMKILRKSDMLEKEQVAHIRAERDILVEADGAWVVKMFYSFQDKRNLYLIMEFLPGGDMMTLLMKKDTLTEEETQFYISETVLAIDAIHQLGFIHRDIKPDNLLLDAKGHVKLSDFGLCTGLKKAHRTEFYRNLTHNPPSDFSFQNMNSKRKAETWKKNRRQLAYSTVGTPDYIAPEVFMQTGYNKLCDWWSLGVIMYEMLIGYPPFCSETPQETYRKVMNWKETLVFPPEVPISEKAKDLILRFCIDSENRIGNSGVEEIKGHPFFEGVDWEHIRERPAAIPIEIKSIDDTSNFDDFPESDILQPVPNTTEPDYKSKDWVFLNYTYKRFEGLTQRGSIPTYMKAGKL

Receptor tyrosine-protein kinase erbB-3 (Homo sapiens), sequence (P21860 whole entry): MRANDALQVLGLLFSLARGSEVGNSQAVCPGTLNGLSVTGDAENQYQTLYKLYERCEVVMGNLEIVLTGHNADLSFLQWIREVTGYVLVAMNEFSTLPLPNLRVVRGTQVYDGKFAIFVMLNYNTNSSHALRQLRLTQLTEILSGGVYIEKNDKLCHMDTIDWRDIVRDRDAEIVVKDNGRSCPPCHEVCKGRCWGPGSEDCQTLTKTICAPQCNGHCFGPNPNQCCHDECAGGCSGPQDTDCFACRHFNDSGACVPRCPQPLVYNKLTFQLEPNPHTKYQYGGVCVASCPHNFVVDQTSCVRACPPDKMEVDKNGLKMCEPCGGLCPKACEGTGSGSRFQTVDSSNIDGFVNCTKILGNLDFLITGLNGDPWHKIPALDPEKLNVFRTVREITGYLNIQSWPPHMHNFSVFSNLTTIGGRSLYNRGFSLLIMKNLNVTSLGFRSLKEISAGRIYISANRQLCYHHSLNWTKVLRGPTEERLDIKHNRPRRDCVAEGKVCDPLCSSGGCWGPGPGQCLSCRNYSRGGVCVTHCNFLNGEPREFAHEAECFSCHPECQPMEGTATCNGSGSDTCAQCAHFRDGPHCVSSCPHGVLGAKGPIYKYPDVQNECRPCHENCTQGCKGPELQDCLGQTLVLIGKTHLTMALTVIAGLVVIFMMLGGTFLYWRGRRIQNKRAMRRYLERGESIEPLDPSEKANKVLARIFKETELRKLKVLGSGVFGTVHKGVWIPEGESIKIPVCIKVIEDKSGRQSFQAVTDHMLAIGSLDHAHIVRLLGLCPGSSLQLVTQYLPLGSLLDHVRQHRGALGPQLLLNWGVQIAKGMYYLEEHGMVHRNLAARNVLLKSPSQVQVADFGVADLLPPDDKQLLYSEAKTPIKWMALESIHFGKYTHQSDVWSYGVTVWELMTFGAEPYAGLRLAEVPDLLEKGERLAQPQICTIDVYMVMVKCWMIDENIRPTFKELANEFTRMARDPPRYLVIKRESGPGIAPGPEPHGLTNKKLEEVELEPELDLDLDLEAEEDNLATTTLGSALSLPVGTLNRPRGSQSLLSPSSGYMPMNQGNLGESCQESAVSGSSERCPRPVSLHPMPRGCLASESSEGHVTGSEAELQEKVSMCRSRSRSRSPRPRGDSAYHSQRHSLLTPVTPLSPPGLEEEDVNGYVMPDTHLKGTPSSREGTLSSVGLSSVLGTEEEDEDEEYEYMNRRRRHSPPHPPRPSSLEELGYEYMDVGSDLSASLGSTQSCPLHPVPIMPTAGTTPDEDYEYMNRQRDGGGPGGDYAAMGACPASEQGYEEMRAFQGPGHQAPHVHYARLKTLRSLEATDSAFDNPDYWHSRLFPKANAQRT
Cyclin-dependent kinase-like 3 (Homo sapiens), sequence (Q8IVW4 whole entry, looked up): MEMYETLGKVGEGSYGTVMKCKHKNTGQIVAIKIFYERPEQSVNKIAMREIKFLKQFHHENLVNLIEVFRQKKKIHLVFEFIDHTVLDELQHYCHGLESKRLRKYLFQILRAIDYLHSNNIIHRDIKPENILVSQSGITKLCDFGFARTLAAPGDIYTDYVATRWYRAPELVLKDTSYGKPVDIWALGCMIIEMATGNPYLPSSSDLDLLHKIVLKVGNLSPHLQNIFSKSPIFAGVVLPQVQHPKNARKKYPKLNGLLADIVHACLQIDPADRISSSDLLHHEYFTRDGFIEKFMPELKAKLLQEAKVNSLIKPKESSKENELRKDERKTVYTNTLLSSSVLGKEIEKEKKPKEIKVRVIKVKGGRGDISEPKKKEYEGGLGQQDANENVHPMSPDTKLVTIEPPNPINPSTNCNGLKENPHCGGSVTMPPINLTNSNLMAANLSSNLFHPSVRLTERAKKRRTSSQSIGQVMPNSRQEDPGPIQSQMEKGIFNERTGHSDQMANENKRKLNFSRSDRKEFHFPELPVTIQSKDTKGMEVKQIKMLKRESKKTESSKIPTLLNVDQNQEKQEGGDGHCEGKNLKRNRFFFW
Mitogen-activated protein kinase 1, sequence (P28482 whole entry): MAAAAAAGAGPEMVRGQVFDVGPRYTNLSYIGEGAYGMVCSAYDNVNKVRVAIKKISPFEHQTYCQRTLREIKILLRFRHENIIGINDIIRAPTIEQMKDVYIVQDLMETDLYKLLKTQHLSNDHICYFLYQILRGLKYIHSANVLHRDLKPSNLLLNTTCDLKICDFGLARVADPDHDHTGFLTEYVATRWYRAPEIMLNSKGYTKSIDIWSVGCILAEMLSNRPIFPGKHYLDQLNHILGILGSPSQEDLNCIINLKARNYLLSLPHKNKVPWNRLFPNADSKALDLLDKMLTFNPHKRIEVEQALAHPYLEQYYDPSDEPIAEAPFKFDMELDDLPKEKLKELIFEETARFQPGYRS
Mitogen-activated protein kinase 8, sequence (P45983 whole entry): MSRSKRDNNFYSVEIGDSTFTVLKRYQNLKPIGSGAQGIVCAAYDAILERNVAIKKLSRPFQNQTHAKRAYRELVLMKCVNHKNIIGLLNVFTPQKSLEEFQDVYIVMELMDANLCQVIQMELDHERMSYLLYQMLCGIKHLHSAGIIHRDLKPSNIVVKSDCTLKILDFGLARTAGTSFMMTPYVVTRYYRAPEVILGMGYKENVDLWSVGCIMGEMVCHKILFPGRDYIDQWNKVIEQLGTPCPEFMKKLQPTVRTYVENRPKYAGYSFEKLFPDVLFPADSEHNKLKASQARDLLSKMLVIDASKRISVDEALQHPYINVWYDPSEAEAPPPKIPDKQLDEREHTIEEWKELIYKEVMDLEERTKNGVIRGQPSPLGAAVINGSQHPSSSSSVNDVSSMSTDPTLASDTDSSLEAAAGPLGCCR

CNCCN1CCC(c2cc(CN(C)C(=O)c3cccc(Oc4ccccc4)c3)ccn2)CC1
% activity [1]: > 90%

CN(C(=O)c1cnn2cccnc12)c1cc2c(cc1N1CCOCC1)C(=O)N(C[C@@H](F)C(C)(C)O)C2
dTM [2]: -1 K

CC[C@@H]1[C@H](F)C(=O)N[C@@H]1COc1nccc2cc(C(N)=O)c(OC)cc12 [ZIMLOVISERTIB]
% of inhibition [3]: -10.7%

COCC(=O)NC/C=C/c1ccc2ncnc(Nc3ccc(Oc4ccc(C)nc4)c(C)c3)c2c1 [CP-724714]
% of control [4]: 66%

CCC(=O)N1CCN(c2ccc(-n3c(=O)ccc4cnc5ccc(-c6cnc7ccccc7c6)cc5c43)cc2C(F)(F)F)CC1
% of control [5]: 92%

O[C@H]1CC[C@H](Nc2ncc3nc(Nc4c(F)cc(F)cc4F)n([C@H]4CCOC4)c3n2)CC1
% of control [6]: 4.6%
% of control [7]: 100%

N#Cc1cccc(-c2c[nH]c3ncnc(N4CCOCC4)c23)c1
% of inhibition [8]: 8%
% of control [9]: 100%

Source: ChEMBL document CHEMBL5465560, “Selectivity Literature for EUbOPEN Chemogenomic Library” (2024)
